Assay results as given in PMC6009868, “Synthesis and bioactivity of several new hetaryl sulfonamides” (Journal of Enzyme Inhibition and Medicinal Chemistry, 2017).

Test: Metal chelating activity (Fe2+-ferrozine, 562 nm)
Conditions: absorbance at 562 nm
Protocol: Metal chelating capacity of hetaryl sulfonamides 1–12 was determined according to Dinis et al.[60]. […] Simultaneously, to a mixture of FeCl2 (0.1 mL, 0.6 mM), three concentrations (10–30 µg/mL) of hetaryl sulfonamides 1–12 in ethanol (0.4 mL) were added. The activities were initiated by the addition of ferrozine molecules (0.1 mL, 5 mM). Additionally, the reaction was mixed and maintained in a dark room for 10 min.

Q: For `O=C(O)CN(CCN(CC(=O)O)CC(=O)O)CC(=O)O` [EDTA], which “Fe^2+ chelating (IC50)” value is on record?
A: 9.36 mg/L

Q: Which “Fe^2+ chelating (IC50)” value does the source give for `Cc1c(C)c2c(c(C)c1O)CCC(C)(C(=O)O)O2` (centres unmarked) [Trolox] here?
A: 31.13 mg/L

Q: For `Cc1c(C)c2c(c(C)c1O)CC[C@@](C)(CCC[C@H](C)CCC[C@H](C)CCCC(C)C)O2` [α-Tocopherol], which “Fe^2+ chelating (IC50)” value is on record?
A: 40.76 mg/L

Q: For `COc1ccc(O)c(C(C)(C)C)c1` [BHA], which “Fe^2+ chelating (IC50)” value is on record?
A: 46.20 mg/L

Q: With `Cc1cc(C(C)(C)C)c(O)c(C(C)(C)C)c1` [BHT] as the molecule, how does the “Fe^2+ chelating (IC50)” value read?
A: 76.96 mg/L
